Converted amounts (≈) assume the structure as drawn.
Key:
S. pneumoniae D39V [1] = test: Bliss interaction score (quartile over a dose matrix) (fitness difference); higher = more antagonism (negative = synergy)
Summary of the method: (§1)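 Growth was read as OD595 when cultures entered stationary phase, and each value was divided by the plate's robust no-drug mean and capped at 1. This normalised ratio is the fitness value, and fitness for each single drug came from the combination data. The Bliss score subtracts the expected fitness, taken as the product, from the observed fitness and is given as quartiles across technical, biological and donor/recipient replicates.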

B. subtilis 168 [2] = test: as above
Summary of the method: as §1

S. aureus DSM 20231 [3] = test: as above
Summary of the method: as §1

S. aureus Newman [4] = test: as above
Summary of the method: as §1

S. pneumoniae D39V [5] = test: fitness (endpoint OD595 vs no drug) (fraction); higher = more growth
Summary of the method: (§2)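 At 37 °C, bacteria in TSB, LB Lennox or CY were grown in 384-well plates from a starting OD595 of 0.01. OD595 was measured every 30 min for 14 h, with the first reading used as background. Fitness is the optical density at the switch to stationary phase as a fraction of the robust mean of no-drug control wells, capped at 1.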

B. subtilis 168 [6] = test: as above
Summary of the method: as §2

S. aureus DSM 20231 [7] = test: as above
Summary of the method: as §2

S. aureus Newman [8] = test: as above
Summary of the method: as §2

S. pneumoniae D39V [9] = system: S. pneumoniae D39V
B. subtilis 168 [10] = system: B. subtilis 168
S. aureus DSM 20231 [11] = system: S. aureus DSM 20231
S. aureus Newman [12] = system: S. aureus Newman
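Throughout, for Bliss interaction score (quartile over a dose matrix): first quartile when negative (synergy) and third quartile when positive (antagonism).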

CCCCCCCCCC(=O)N[C@@H](Cc1c[nH]c2ccccc12)C(=O)N[C@H](CC(N)=O)C(=O)N[C@@H](CC(=O)O)C(=O)N[C@@H]1C(=O)NCC(=O)N[C@@H](CCCN)C(=O)N[C@@H](CC(=O)O)C(=O)N[C@H](C)C(=O)N[C@@H](CC(=O)O)C(=O)NCC(=O)N[C@H](CO)C(=O)N[C@@H]([C@H](C)CC(=O)O)C(=O)N[C@@H](CC(=O)c2ccccc2N)C(=O)O[C@@H]1C [Daptomycin] + COc1ccc(C[C@H](N)C(=O)N[C@H]2[C@@H](O)[C@H](n3cnc4c(N(C)C)ncnc43)O[C@@H]2CO)cc1 [Puromycin]
Conditions	Bliss interaction score
B. subtilis 168 [2]	0.0496
S. aureus DSM 20231 [3]	0.0803
S. aureus Newman [4]	0.0477
S. pneumoniae D39V [1]	-0.0975

fitness
Conditions	first compound 0.125 µg/mL	first compound 0.25 µg/mL	first compound 0.5 µg/mL	first compound 1 µg/mL	first compound 2 µg/mL	first compound 4 µg/mL
B. subtilis 168 [6], partner 0.39 µg/mL	0.937	0.932	0.894	–	–	–
B. subtilis 168 [6], partner 0.78 µg/mL	0.912	0.91	0.864	–	–	–
B. subtilis 168 [6], partner 1.56 µg/mL	0.906	0.916	0.841	–	–	–
S. aureus DSM 20231 [7], partner 0.39 µg/mL	–	–	0.993	≥ 1	≥ 1	–
S. aureus DSM 20231 [7], partner 0.78 µg/mL	–	–	≥ 1	0.977	≥ 1	–
S. aureus DSM 20231 [7], partner 1.56 µg/mL	0.953	≥ 1	≥ 1	0.989	0.957	–
S. aureus Newman [8], partner 0.39 µg/mL	0.998	1	0.997	–	–	–
S. aureus Newman [8], partner 0.78 µg/mL	0.992	0.989	0.995	–	–	–
S. aureus Newman [8], partner 1.56 µg/mL	≥ 1	0.983	≥ 1	–	–	–
S. pneumoniae D39V [5], partner 1 µg/mL	–	–	–	0.939	0.969	0.922
S. pneumoniae D39V [5], partner 2 µg/mL	–	–	–	0.892	0.876	0.909
S. pneumoniae D39V [5], partner 4 µg/mL	–	–	–	0.32	–	–

fitness, one replicate
Conditions	partner 0.39 µg/mL	partner 0.78 µg/mL	partner 1.56 µg/mL	partner 3.12 µg/mL	partner 6.24 µg/mL
B. subtilis 168 [6], first compound 1 µg/mL	0.719	0.737	0.749	–	–
S. aureus DSM 20231 [7], first compound 0.125 µg/mL	0.935	≥ 1	–	0.968	0.865
S. aureus DSM 20231 [7], first compound 0.25 µg/mL	≥ 1	≥ 1	–	0.932	0.81
S. aureus DSM 20231 [7], first compound 0.5 µg/mL	–	–	–	0.962	0.762

CCCCCCCCCC(=O)N[C@@H](Cc1c[nH]c2ccccc12)C(=O)N[C@H](CC(N)=O)C(=O)N[C@@H](CC(=O)O)C(=O)N[C@@H]1C(=O)NCC(=O)N[C@@H](CCCN)C(=O)N[C@@H](CC(=O)O)C(=O)N[C@H](C)C(=O)N[C@@H](CC(=O)O)C(=O)NCC(=O)N[C@H](CO)C(=O)N[C@@H]([C@H](C)CC(=O)O)C(=O)N[C@@H](CC(=O)c2ccccc2N)C(=O)O[C@@H]1C [Daptomycin]
Conditions	MIC [µg/mL]
B. subtilis 168 [10]	0.5 (≈ 0.309 µM)
S. aureus DSM 20231 [11]	2 (≈ 1.23 µM)
S. aureus Newman [12]	1 (≈ 0.617 µM)
S. pneumoniae D39V [9]	8 (≈ 4.94 µM)

fitness
Conditions	0.125 µg/mL	0.25 µg/mL	0.5 µg/mL	1 µg/mL	2 µg/mL	4 µg/mL
B. subtilis 168 [6]	0.941	0.944	0.934	–	–	–
S. aureus DSM 20231 [7]	0.998	0.989	≥ 1	≥ 1	≥ 1	–
S. aureus Newman [8]	0.954	0.964	0.964	0.98	≥ 1	–
S. pneumoniae D39V [5]	–	–	–	0.875	0.889	0.853

CCCCCCCCCC(=O)N[C@@H](Cc1c[nH]c2ccccc12)C(=O)N[C@H](CC(N)=O)C(=O)N[C@@H](CC(=O)O)C(=O)N[C@@H]1C(=O)NCC(=O)N[C@@H](CCCN)C(=O)N[C@@H](CC(=O)O)C(=O)N[C@H](C)C(=O)N[C@@H](CC(=O)O)C(=O)NCC(=O)N[C@H](CO)C(=O)N[C@@H]([C@H](C)CC(=O)O)C(=O)N[C@@H](CC(=O)c2ccccc2N)C(=O)O[C@@H]1C [Daptomycin] + CN[C@@H]1[C@H](O)[C@H](NC)[C@H]2O[C@@]3(O)C(=O)C[C@@H](C)O[C@H]3O[C@@H]2[C@H]1O [Spectinomycin]
Conditions	Bliss interaction score
B. subtilis 168 [2]	0.0649
S. aureus DSM 20231 [3]	0.0629
S. aureus Newman [4]	0.0696
S. pneumoniae D39V [1]	0.0673

fitness
Conditions	first compound 0.125 µg/mL	first compound 0.25 µg/mL	first compound 0.5 µg/mL	first compound 1 µg/mL	first compound 2 µg/mL	first compound 4 µg/mL
B. subtilis 168 [6], partner 2 µg/mL	0.934	0.979	0.836	–	–	–
B. subtilis 168 [6], partner 4 µg/mL	0.964	0.946	0.813	–	–	–
B. subtilis 168 [6], partner 8 µg/mL	0.863	0.944	0.835	–	–	–
S. aureus DSM 20231 [7], partner 4 µg/mL	–	–	≥ 1	0.978	0.964	–
S. aureus DSM 20231 [7], partner 8 µg/mL	–	–	≥ 1	0.96	0.946	–
S. aureus DSM 20231 [7], partner 16 µg/mL	0.852	0.872	0.905	0.931	0.866	–
S. aureus Newman [8], partner 4 µg/mL	0.963	0.932	0.924	–	–	–
S. aureus Newman [8], partner 8 µg/mL	0.991	0.983	0.952	–	–	–
S. aureus Newman [8], partner 16 µg/mL	0.915	0.917	0.905	–	–	–
S. pneumoniae D39V [5], partner 4 µg/mL	–	–	–	0.92	0.943	0.941
S. pneumoniae D39V [5], partner 8 µg/mL	–	–	–	0.817	0.856	0.847
S. pneumoniae D39V [5], partner 16 µg/mL	–	–	–	0.554	0.569	0.546

fitness, one replicate
Conditions	partner 2 µg/mL	partner 4 µg/mL	partner 8 µg/mL	partner 32 µg/mL	partner 64 µg/mL
B. subtilis 168 [6], first compound 1 µg/mL	0.704	0.71	0.751	–	–
S. aureus DSM 20231 [7], first compound 0.125 µg/mL	–	0.935	0.988	0.767	0.0669
S. aureus DSM 20231 [7], first compound 0.25 µg/mL	–	0.977	0.998	0.7	0.0927
S. aureus DSM 20231 [7], first compound 0.5 µg/mL	–	–	–	0.745	0.079
S. aureus Newman [8], first compound 0.125 µg/mL	–	–	–	0.595	0.0775
S. aureus Newman [8], first compound 0.25 µg/mL	–	–	–	0.63	0.0532
S. aureus Newman [8], first compound 0.5 µg/mL	–	–	–	0.626	0.0675

CC1(C)S[C@@H]2[C@H](NC(=O)[C@H](N)c3ccc(O)cc3)C(=O)N2[C@H]1C(=O)O [Amoxicillin]
Conditions	MIC [µg/mL]
S. aureus DSM 20231 [11]	0.556 (≈ 1.52 µM)
S. aureus Newman [12]	0.25 (≈ 0.684 µM)
S. pneumoniae D39V [9]	0.004 (≈ 0.0109 µM)

fitness
Conditions	0.0008 µg/mL	0.0015 µg/mL	0.003 µg/mL	0.0625 µg/mL	0.125 µg/mL	0.25 µg/mL	0.5 µg/mL
S. aureus DSM 20231 [7]	–	–	–	0.606	0.504	0.0502	0.0082
S. aureus Newman [8]	–	–	–	0.896	0.878	0.85	0.865
S. pneumoniae D39V [5]	0.972	0.945	0.923	–	–	–	–

CCCCCCCCCC(=O)N[C@@H](Cc1c[nH]c2ccccc12)C(=O)N[C@H](CC(N)=O)C(=O)N[C@@H](CC(=O)O)C(=O)N[C@@H]1C(=O)NCC(=O)N[C@@H](CCCN)C(=O)N[C@@H](CC(=O)O)C(=O)N[C@H](C)C(=O)N[C@@H](CC(=O)O)C(=O)NCC(=O)N[C@H](CO)C(=O)N[C@@H]([C@H](C)CC(=O)O)C(=O)N[C@@H](CC(=O)c2ccccc2N)C(=O)O[C@@H]1C [Daptomycin] + Cc1ncc([N+](=O)[O-])n1CCO [Metronidazole]
Conditions	Bliss interaction score
B. subtilis 168 [2]	-0.0566
S. aureus DSM 20231 [3]	0.0276
S. aureus Newman [4]	0.0422
S. pneumoniae D39V [1]	0.0723

fitness
Conditions	partner 0.625 µg/mL	partner 1.073 µg/mL	partner 1.25 µg/mL	partner 2.145 µg/mL	partner 2.5 µg/mL	partner 4.29 µg/mL	partner 5 µg/mL
B. subtilis 168 [6], first compound 0.125 µg/mL	0.942	–	0.892	–	0.93	–	–
B. subtilis 168 [6], first compound 0.25 µg/mL	0.899	–	0.966	–	0.944	–	–
B. subtilis 168 [6], first compound 0.5 µg/mL	0.935	–	0.904	–	0.874	–	–
S. aureus DSM 20231 [7], first compound 0.125 µg/mL	0.924	–	≥ 1	–	0.983	–	–
S. aureus DSM 20231 [7], first compound 0.25 µg/mL	0.932	–	≥ 1	–	≥ 1	–	–
S. aureus DSM 20231 [7], first compound 0.5 µg/mL	≥ 1	–	≥ 1	–	≥ 1	–	–
S. aureus DSM 20231 [7], first compound 1 µg/mL	≥ 1	–	≥ 1	–	≥ 1	–	–
S. aureus DSM 20231 [7], first compound 2 µg/mL	≥ 1	–	≥ 1	–	≥ 1	–	–
S. aureus Newman [8], first compound 0.125 µg/mL	0.935	–	≥ 1	–	0.982	–	–
S. aureus Newman [8], first compound 0.25 µg/mL	0.951	–	≥ 1	–	0.994	–	–
S. aureus Newman [8], first compound 0.5 µg/mL	≥ 1	–	≥ 1	–	0.975	–	–
S. pneumoniae D39V [5], first compound 1 µg/mL	–	0.846	0.977	0.786	≥ 1	0.777	0.993
S. pneumoniae D39V [5], first compound 2 µg/mL	–	0.9	0.985	0.876	≥ 1	0.87	≥ 1
S. pneumoniae D39V [5], first compound 4 µg/mL	–	0.949	0.93	0.888	0.97	0.928	0.976

fitness, one replicate
Conditions	partner 0.625 µg/mL	partner 0.781 µg/mL	partner 1.25 µg/mL	partner 1.562 µg/mL	partner 2.5 µg/mL	partner 3.124 µg/mL
B. subtilis 168 [6], first compound 1 µg/mL	0.736	–	0.806	–	0.754	–
S. aureus Newman [8], first compound 0.125 µg/mL	–	≥ 1	–	≥ 1	–	≥ 1
S. aureus Newman [8], first compound 0.25 µg/mL	–	≥ 1	–	≥ 1	–	≥ 1
S. aureus Newman [8], first compound 0.5 µg/mL	–	≥ 1	–	≥ 1	–	≥ 1

Reference: the supplement of paper PMC10627819
